Laboratory results: patent publication US20060057181A1, “Method for determining the gastric evacuation using a 13c-labelled test meal” (priority 2002, published 2006)

Assay: 13C-octanoic acid breath test of gastric emptying: 13CO2 excretion in exhaled respiratory air measured by IRMS after test meal
Protocol: The thus formed ^13CO2 is then measured in the exhaled respiratory air by means of IRMS. IRMS (isotope ratio mass spectrography) has in the meantime become the most sensitive and best method for determining ^13CO2 in the exhaled respiratory air.
Therefore, the sampling and optimum calculation take three to four hours. The interval for sampling is optimal at 15 min.
Further, the patient need not sit calmly between the measuring devices for radioactivity. Rather, it is sufficient if they blow samples of their respiratory air into collecting devices every 12 minutes. For example, the so-called vacutainerss are particularly suitable for this purpose. These samples of the exhaled respiratory air may then be measured and evaluated in a central laboratory with a correspondingly sensitive IRMS equipment.

## CCCCCCC[13C](=O)O [^13C-octanoic acid]
Normal gastric emptying (patient No. 1), free 13C-octanoic acid bound to egg yolk, oral test meal, exhaled air, IRMS
  maximum of 13CO2 excretion: > 2.9 h
Somewhat faster gastric emptying (patient No. 5)
  maximum of 13CO2 excretion: > 2.9 h
Very delayed gastric emptying (patient No. 4)
  maximum of 13CO2 excretion: < 2.5 h
